From patent publication US11702422B2, “Imidazopyridazines as modulators of IL-17” (Janssen Pharmaceutica NV, priority 2020, dated 2023)

Legend:
[1] = target: IL-17A(FLAG-Tagged): IL-17RA(His-Tagged) (Homo sapiens, UniProt Q16552, K93Q); test: IL-17A(FLAG-Tagged): IL-17RA(His-Tagged) Binding Disruption Eu-HTRF Assay; details: IL-17A/IL-17RA binding disruption, simple average if tested more than once
Outline: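 IC50 comes from a one-site competition fit of the HTRF 665/620 nm ratio. Compound dilutions (2-fold, 22 points) were held 1 h rt with FLAG-tagged IL-17A dimer, then His-tagged IL-17RA plus Eu-cryptate anti-FLAG and D2 anti-His antibodies were added for 2 h rt.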

[2] = test system: IL-17A-induced G-CSF production in human normal keratinocyte (NHK); test: NHK Assay: IL-17A-induced G-CSF production in human normal keratinocytes; format: cell-based; details: Homo sapiens, Keratinocyte, 24 h, adult normal human keratinocytes, IL-17A 5 ng/mL, simple average if tested more than once
Outline: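 G-CSF released by primary adult human keratinocytes after 24 h at 37° C was quantified by HTRF via standard curve to give IC50. Stimulus was 5 ng/mL IL-17A pre-mixed 1 h at rt with compound dilutions, in 5% FBS and 0.2% DMSO. Cell viability was assessed in parallel with CellTiter-Glo.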

Chain of UniProt Q16552 (Q16552 with tags, fused parts or gaps K93Q): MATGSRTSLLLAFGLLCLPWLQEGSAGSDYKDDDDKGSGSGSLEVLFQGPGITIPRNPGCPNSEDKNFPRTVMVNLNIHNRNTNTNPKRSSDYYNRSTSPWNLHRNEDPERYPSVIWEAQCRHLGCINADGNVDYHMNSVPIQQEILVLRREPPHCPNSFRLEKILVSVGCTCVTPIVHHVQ

SMILES	IC50 [1]	IC50 [2]
CC(C)c1nonc1C(=O)N[C@H](c1cn2ncc([C@H](NC(=O)CC34CC(F)(C3)C4)C3CC3)cc2n1)C1CCC(F)(F)CC1 [Example 279, N—((S)-(7-((R)-Cyclopropyl(2-(3-fluorobicyclo[1.1.1]pentan-1-yl)acetamido)methyl)imidazo[1,2-b]pyridazin-2-yl)(4,4-difluorocyclohexyl)methyl)-4-isopropyl-1,2,5-oxadiazole-3-carboxamide]	36 nM	64 nM
CC(C)n1nccc1C(=O)N[C@H](c1cn2ncc([C@H](NC(=O)CCC(F)F)C3CC3)cc2n1)C1CCC(F)(F)CC1 [Example 280, N—((S)-(7-((R)-Cyclopropyl(4,4-difluorobutanamido)methyl)imidazo[1,2-b]pyridazin-2-yl)(4,4-difluorocyclohexyl)methyl)-1-isopropyl-1H-pyrazole-5-carboxamide]	54 nM	120 nM
CC(C)c1nonc1C(=O)N[C@H](c1cn2ncc([C@H](NC(=O)CC3CC(F)(F)C3)C3CC3)cc2n1)C1CCC(F)(F)CC1 [Example 281, N—((S)-(7-((R)-Cyclopropyl(2-(3,3-difluorocyclobutyl)acetamido)methyl)imidazo[1,2-b]pyridazin-2-yl)(4,4-difluorocyclohexyl)methyl)-4-isopropyl-1,2,5-oxadiazole-3-carboxamide]	24 nM	26 nM
[2H]C([2H])([2H])C([2H])([2H])n1nccc1C(=O)N[C@H](c1cn2ncc([C@H](NC(=O)CCC(F)F)C3CC3)cc2n1)C1CCC(F)(F)CC1 [Example 282, N—((S)-(7-((R)-Cyclopropyl(4,4-difluorobutanamido)methyl)imidazo[1,2-b]pyridazin-2-yl)(4,4-difluorocyclohexyl)methyl)-1-(ethyl-d5)-1H-pyrazole-5-carboxamide]	160 nM	420 nM
[2H]C([2H])([2H])n1nccc1C(=O)N[C@H](c1cn2ncc([C@H](NC(=O)CCC(F)F)C3CC3)cc2n1)C1CCC(F)(F)CC1 [Example 283, N—((S)-(7-((R)-Cyclopropyl(4,4-difluorobutanamido)methyl)imidazo[1,2-b]pyridazin-2-yl)(4,4-difluorocyclohexyl)methyl)-1-(methyl-d3)-1H-pyrazole-5-carboxamide]	310 nM	690 nM
CC(C)Oc1nocc1C(=O)N[C@H](c1cn2ncc([C@H](NC(=O)CCC(F)(F)F)C3CC3)cc2n1)C1CCC(F)(F)CC1 [Example 284, N—((S)-(7-((R)-Cyclopropyl(4,4,4-trifluorobutanamido)methyl)imidazo[1,2-b]pyridazin-2-yl)(4,4-difluorocyclohexyl)methyl)-3-isopropoxyisoxazole-4-carboxamide]	220 nM	920 nM
O=C(CCC(F)(F)F)N[C@@H](c1cnn2cc([C@@H](NC(=O)c3conc3OCC(F)F)C3CCC(F)(F)CC3)nc2c1)C1CC1 [Example 285, N—((S)-(7-((R)-Cyclopropyl(4,4,4-trifluorobutanamido)methyl)imidazo[1,2-b]pyridazin-2-yl)(4,4-difluorocyclohexyl)methyl)-3-(2,2-difluoroethoxy)isoxazole-4-carboxamide]	120 nM	340 nM
O=C(CCC(F)F)N[C@@H](c1cnn2cc([C@@H](NC(=O)c3conc3OCC(F)F)C3CCC(F)(F)CC3)nc2c1)C1CC1 [Example 286, N—((S)-(7-((R)-Cyclopropyl(4,4-difluorobutanamido)methyl)imidazo[1,2-b]pyridazin-2-yl)(4,4-difluorocyclohexyl)methyl)-3-(2,2-difluoroethoxy)isoxazole-4-carboxamide]	310 nM	7500 nM
O=C(CCC(F)F)N[C@@H](c1cnn2cc([C@@H](NC(=O)c3conc3COC(F)F)C3CCC(F)(F)CC3)nc2c1)C1CC1 [Example 287, N—((S)-(7-((R)-Cyclopropyl(4,4-difluorobutanamido)methyl)imidazo[1,2-b]pyridazin-2-yl)(4,4-difluorocyclohexyl)methyl)-3-((difluoromethoxy)methyl)isoxazole-4-carboxamide]	140 nM	410 nM
O=C(CCC(F)F)N[C@@H](c1cnn2cc([C@@H](NC(=O)c3nonc3C3CC3)C3CCC(F)(F)CC3)nc2c1)C1CC1 [Example 288, 4-Cyclopropyl-N—((S)-(7-((R)-cyclopropyl(4,4-difluorobutanamido)methyl)imidazo[1,2-b]pyridazin-2-yl)(4,4-difluorocyclohexyl)methyl)-1,2,5-oxadiazole-3-carboxamide]	71 nM	200 nM
O=C(CC1CC(F)(F)C1)N[C@@H](c1cnn2cc([C@@H](NC(=O)c3nonc3C3CC3)C3CCC(F)(F)CC3)nc2c1)C1CC1 [Example 289, 4-Cyclopropyl-N—((S)-(7-((R)-cyclopropyl(2-(3,3-difluorocyclobutyl)acetamido)methyl)imidazo[1,2-b]pyridazin-2-yl)(4,4-difluorocyclohexyl)methyl)-1,2,5-oxadiazole-3-carboxamide]	37 nM	23 nM
Cc1nonc1C(=O)N[C@H](c1cn2ncc([C@H](NC(=O)CCC3CC3(F)F)C3CC3)cc2n1)C1CCC(F)(F)CC1 (stereo partly drawn) [Example 290, N-((1S)-(7-((1R)-Cyclopropyl(3-(2,2-difluorocyclopropyl)propanamido)methyl)imidazo[1,2-b]pyridazin-2-yl)(4,4-difluorocyclohexyl)methyl)-4-methyl-1,2,5-oxadiazole-3-carboxamide]	83 nM	220 nM
Cc1nonc1C(=O)N[C@H](c1cn2ncc([C@H](NC(=O)CC3CCCC3(F)F)C3CC3)cc2n1)C1CCC(F)(F)CC1 (stereo partly drawn) [Example 291, N-((1S)-(7-((1R)-Cyclopropyl(2-(2,2-difluorocyclopentyl)acetamido)methyl)imidazo[1,2-b]pyridazin-2-yl)(4,4-difluorocyclohexyl)methyl)-4-methyl-1,2,5-oxadiazole-3-carboxamide]	370 nM	4000 nM
CC(C)Oc1nocc1C(=O)N[C@H](c1cn2ncc([C@H](NC(=O)CC3CC(F)(F)C3)C3CC3)cc2n1)C1CCC(F)(F)CC1 [Example 292, N—((S)-(7-((R)-Cyclopropyl(2-(3,3-difluorocyclobutyl)acetamido)methyl)imidazo[1,2-b]pyridazin-2-yl)(4,4-difluorocyclohexyl)methyl)-3-isopropoxyisoxazole-4-carboxamide]	220 nM	870 nM
O=C(CC1CC(F)(F)C1)N[C@@H](c1cnn2cc([C@@H](NC(=O)c3conc3OCC(F)F)C3CCC(F)(F)CC3)nc2c1)C1CC1 [Example 293, N—((S)-(7-((R)-Cyclopropyl(2-(3,3-difluorocyclobutyl)acetamido)methyl)imidazo[1,2-b]pyridazin-2-yl)(4,4-difluorocyclohexyl)methyl)-3-(2,2-difluoroethoxy)isoxazole-4-carboxamide]	160 nM	540 nM
O=C(CC1CC(F)(F)C1)N[C@@H](c1cnn2cc([C@@H](NC(=O)c3conc3COC(F)F)C3CCC(F)(F)CC3)nc2c1)C1CC1 [Example 294, N—((S)-(7-((R)-Cyclopropyl(2-(3,3-difluorocyclobutyl)acetamido)methyl)imidazo[1,2-b]pyridazin-2-yl)(4,4-difluorocyclohexyl)methyl)-3-((difluoromethoxy)methyl)isoxazole-4-carboxamide]	86 nM	38 nM
O=C(CC12CC(F)(C1)C2)N[C@@H](c1cnn2cc([C@@H](NC(=O)c3conc3OCC(F)F)C3CCC(F)(F)CC3)nc2c1)C1CC1 [Example 295, N—((S)-(7-((R)-Cyclopropyl(2-(3-fluorobicyclo[1.1.1]pentan-1-yl)acetamido)methyl)imidazo[1,2-b]pyridazin-2-yl)(4,4-difluorocyclohexyl)methyl)-3-(2,2-difluoroethoxy)isoxazole-4-carboxamide]	150 nM	710 nM
O=C(CC12CC(F)(C1)C2)N[C@@H](c1cnn2cc([C@@H](NC(=O)c3nonc3C3CC3)C3CCC(F)(F)CC3)nc2c1)C1CC1 [Example 296, 4-Cyclopropyl-N—((S)-(7-((R)-cyclopropyl(2-(3-fluorobicyclo[1.1.1]pentan-1-yl)acetamido)methyl)imidazo[1,2-b]pyridazin-2-yl)(4,4-difluorocyclohexyl)methyl)-1,2,5-oxadiazole-3-carboxamide]	22 nM	50 nM
O=C(CC1(C(F)(F)F)CC1)N[C@@H](c1cnn2cc([C@@H](NC(=O)c3nonc3C3CC3)C3CCC(F)(F)CC3)nc2c1)C1CC1 [Example 297, 4-Cyclopropyl-N—((S)-(7-((R)-cyclopropyl(2-(1-(trifluoromethyl)cyclopropyl)acetamido)methyl)imidazo[1,2-b]pyridazin-2-yl)(4,4-difluorocyclohexyl)methyl)-1,2,5-oxadiazole-3-carboxamide]	31 nM	87 nM
CC(C)Oc1nocc1C(=O)N[C@H](c1cn2ncc([C@H](NC(=O)CCC(F)F)C3CC3)cc2n1)C1CCC(F)(F)CC1 [Example 302, N—((S)-(7-((R)-Cyclopropyl(4,4-difluorobutanamido)methyl)imidazo[1,2-b]pyridazin-2-yl)(4,4-difluorocyclohexyl)methyl)-3-isopropoxyisoxazole-4-carboxamide]	1200 nM	> 20000 nM
CC(C)n1nccc1C(=O)N[C@H](c1cn2ncc([C@H](NC(=O)COCC(F)(F)F)C3CC3)cc2n1)C1CCC(F)(F)CC1 [Example 303, N—((S)-(7-((R)-Cyclopropyl(2-(2,2,2-trifluoroethoxy)acetamido)methyl)imidazo[1,2-b]pyridazin-2-yl)(4,4-difluorocyclohexyl)methyl)-1-isopropyl-1H-pyrazole-5-carboxamide]	250 nM	280 nM
